Reference: patent US20080223379A1, “METHODS AND COMPOSITIONS FOR THE TREATMENT OR PROPHYLAXIS OF TENDON AND LIGAMENT INJURY” (DOBAVET GmbH, priority 2007, published 2008)

System: tendon tissue damaged due to ruptured tendon fibrils and hematoma
Assay: Oral calcium dobesilate therapy of tendon damage in horses, sonographic follow-up
Format: in vivo, horse
Conditions: adult horses; 1400 mg with the food twice a day (corresponding to 4 mg/kg body weight/day); four months; sonography after one, two and four months; horses walked
Experimental: Calcium dobesilate was administered with the food in a dose of 1400 mg per adult horse, twice a day each (corresponding to 4 mg/kg body weight/day). The therapy is carried out for four months. Therapy progress is documented sonographically after one month, after two months and after four months. During therapy, the horses are walked.

SMILES: O=S(=O)([O][Ca][O]S(=O)(=O)c1cc(O)ccc1O)c1cc(O)ccc1O [Calcium dobesilate, calcium dobesilate]
- Sonographic therapy progression (structure and density of the tendon in the ultrasound image): the tendon sections hypoechogenic at the beginning of therapy show a physiological structure and density of the tendon in the ultrasound image at the end of therapy
